Assay results published in ChEMBL document CHEMBL1138028, “Synthesis and HIV-1 integrase inhibitory activity of dimeric and tetrameric analogs of indolicidin” (Bioorg Med Chem Lett, 2004).

How the values were obtained:
[1] = target: T1, Human immunodeficiency virus type 1 integrase (Human immunodeficiency virus 1, UniProt Q7ZJM1); assay: Concentration required for inhibition of HIV-1 integrase mediated 3'-end processing
[2] = target: T1, Human immunodeficiency virus type 1 integrase; assay: Concentration required for inhibition of HIV-1 integrase mediated strand transfer

T1 sequence (Q7ZJM1 whole entry): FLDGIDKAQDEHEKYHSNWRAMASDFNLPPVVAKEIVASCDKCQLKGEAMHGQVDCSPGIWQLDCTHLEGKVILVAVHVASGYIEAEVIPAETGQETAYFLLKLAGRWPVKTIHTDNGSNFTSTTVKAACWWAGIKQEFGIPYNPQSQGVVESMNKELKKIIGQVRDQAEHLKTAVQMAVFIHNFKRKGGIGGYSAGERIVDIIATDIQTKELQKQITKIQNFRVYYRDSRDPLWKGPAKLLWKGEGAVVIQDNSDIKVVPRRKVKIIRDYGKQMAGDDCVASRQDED

IC50 [1] [µM]	IC50 [2] [µM]	Compound
2.8	4.9	CC[C@H](C)[C@H](N)C(=O)N[C@@H](CC(C)C)C(=O)N1CCC[C@H]1C(=O)N[C@@H](Cc1c[nH]c2ccccc12)C(=O)N[C@@H](CCCCN)C(=O)N[C@@H](Cc1c[nH]c2ccccc12)C(=O)N1CCC[C@H]1C(=O)N[C@@H](Cc1c[nH]c2ccccc12)C(=O)N[C@@H](Cc1c[nH]c2ccccc12)C(=O)N1CCC[C@H]1C(=O)N[C@@H](Cc1c[nH]c2ccccc12)C(=O)N1CCC[C@H]1C(=O)N1CCC[C@H]1C(=O)NCCCCC(NC(=O)[C@@H]1CCCN1C(=O)[C@@H]1CCCN1C(=O)[C@H](Cc1c[nH]c2ccccc12)NC(=O)[C@@H]1CCCN1C(=O)[C@H](Cc1c[nH]c2ccccc12)NC(=O)[C@H](Cc1c[nH]c2ccccc12)NC(=O)[C@@H]1CCCN1C(=O)[C@H](Cc1c[nH]c2ccccc12)NC(=O)[C@H](CCCCN)NC(=O)[C@H](Cc1c[nH]c2ccccc12)NC(=O)[C@@H]1CCCN1C(=O)[C@H](CC(C)C)NC(=O)[C@@H](N)[C@@H](C)CC)C(N)=O (stereo not given in full)
49	19	CC[C@H](C)[C@H](N)C(=O)N[C@@H](CC(C)C)C(=O)N1CCC[C@H]1C(=O)N[C@@H](Cc1c[nH]c2ccccc12)C(=O)NCC(=O)N[C@@H](Cc1c[nH]c2ccccc12)C(=O)N1CCC[C@H]1C(=O)N[C@@H](Cc1c[nH]c2ccccc12)C(=O)N[C@@H](Cc1c[nH]c2ccccc12)C(=O)N1CCC[C@H]1C(=O)N[C@@H](Cc1c[nH]c2ccccc12)C(=O)N[C@@H](CCCN=C(N)N)C(=O)N[C@@H](CCCN=C(N)N)C(N)=O
2.3	2.3	CC[C@H](C)[C@@H](N)C(=O)N[C@H](CC(C)C)C(=O)N1CCC[C@@H]1C(=O)N[C@H](Cc1c[nH]c2ccccc12)C(=O)N[C@H](CCCCN)C(=O)N[C@H](Cc1c[nH]c2ccccc12)C(=O)N1CCC[C@@H]1C(=O)N[C@H](Cc1c[nH]c2ccccc12)C(=O)N[C@H](Cc1c[nH]c2ccccc12)C(=O)N1CCC[C@@H]1C(=O)N[C@H](Cc1c[nH]c2ccccc12)C(=O)N1CCC[C@@H]1C(=O)N1CCC[C@@H]1C(=O)NCCCCC(NC(=O)[C@H]1CCCN1C(=O)[C@H]1CCCN1C(=O)[C@@H](Cc1c[nH]c2ccccc12)NC(=O)[C@H]1CCCN1C(=O)[C@@H](Cc1c[nH]c2ccccc12)NC(=O)[C@@H](Cc1c[nH]c2ccccc12)NC(=O)[C@H]1CCCN1C(=O)[C@@H](Cc1c[nH]c2ccccc12)NC(=O)[C@@H](CCCCN)NC(=O)[C@@H](Cc1c[nH]c2ccccc12)NC(=O)[C@H]1CCCN1C(=O)[C@@H](CC(C)C)NC(=O)[C@H](N)[C@@H](C)CC)C(N)=O (stereo not given in full)

Further lines, the compound ahead of its results:

Compound	IC50 [1] [µM]	IC50 [2] [µM]
H-ILPWKWPWWPWPP-NH2	16	13
H-ILPWKWPWWPWP-NH2	180	80
H-LPWKWPWWPWPP-NH2	185	215
CC[C@H](C)[C@H](N)C(=O)N[C@@H](CC(C)C)C(=O)N1CCC[C@H]1C(=O)N[C@@H](Cc1c[nH]c2ccccc12)C(=O)N[C@@H](CCCCN)C(=O)N[C@@H](Cc1c[nH]c2ccccc12)C(=O)N1CCC[C@H]1C(=O)N[C@@H](Cc1c[nH]c2ccccc12)C(=O)N[C@@H](Cc1c[nH]c2ccccc12)C(=O)N1CCC[C@H]1C(=O)N[C@@H](Cc1c[nH]c2ccccc12)C(=O)N1CCC[C@H]1C(=O)N1CCC[C@H]1C(=O)NCCCCC(NC(=O)[C@@H]1CCCN1C(=O)[C@@H]1CCCN1C(=O)[C@H](Cc1c[nH]c2ccccc12)NC(=O)[C@@H]1CCCN1C(=O)[C@H](Cc1c[nH]c2ccccc12)NC(=O)[C@H](Cc1c[nH]c2ccccc12)NC(=O)[C@@H]1CCCN1C(=O)[C@H](Cc1c[nH]c2ccccc12)NC(=O)[C@H](CCCCN)NC(=O)[C@H](Cc1c[nH]c2ccccc12)NC(=O)[C@@H]1CCCN1C(=O)[C@H](CC(C)C)NC(=O)[C@@H](N)[C@@H](C)CC)C(=O)NCCCCC(NC(=O)C(CCCCNC(=O)[C@@H]1CCCN1C(=O)[C@@H]1CCCN1C(=O)[C@H](Cc1c[nH]c2ccccc12)NC(=O)[C@@H]1CCCN1C(=O)[C@H](Cc1c[nH]c2ccccc12)NC(=O)[C@H](Cc1c[nH]c2ccccc12)NC(=O)[C@@H]1CCCN1C(=O)[C@H](Cc1c[nH]c2ccccc12)NC(=O)[C@H](CCCCN)NC(=O)[C@H](Cc1c[nH]c2ccccc12)NC(=O)[C@@H]1CCCN1C(=O)[C@H](CC(C)C)NC(=O)[C@H](N)[C@@H](C)CC)NC(=O)[C@@H]1CCCN1C(=O)[C@@H]1CCCN1C(=O)[C@H](Cc1c[nH]c2ccccc12)NC(=O)[C@@H]1CCCN1C(=O)[C@H](Cc1c[nH]c2ccccc12)NC(=O)[C@H](Cc1c[nH]c2ccccc12)NC(=O)[C@@H]1CCCN1C(=O)[C@H](Cc1c[nH]c2ccccc12)NC(=O)[C@H](CCCCN)NC(=O)[C@H](Cc1c[nH]c2ccccc12)NC(=O)[C@@H]1CCCN1C(=O)[C@H](CC(C)C)NC(=O)[C@@H](N)[C@@H](C)CC)C(N)=O (stereo not given in full)	0.6	0.6
CC[C@H](C)[C@H](N)C(=O)N[C@@H](CC(C)C)C(=O)N1CCC[C@H]1C(=O)N[C@@H](Cc1c[nH]c2ccccc12)C(=O)N[C@@H](CCCCN)C(=O)N[C@@H](Cc1c[nH]c2ccccc12)C(=O)N1CCC[C@H]1C(=O)N[C@@H](Cc1c[nH]c2ccccc12)C(=O)N[C@@H](Cc1c[nH]c2ccccc12)C(=O)N1CCC[C@H]1C(=O)N[C@@H](Cc1c[nH]c2ccccc12)C(=O)N[C@@H](CCCN=C(N)N)C(=O)N[C@@H](CCCN=C(N)N)C(N)=O [Indolicidin]	60	57
H-ILAWKWAWWAWPP-NH2	54	41
H-ILPWGWPWWPWPP-NH2	> 333	> 333
